Reference: patent US12595226B2, “Carbonate containing lipid compounds and compositions for intracellular delivery of therapeutic agents” (ModernaTX, Inc., priority 2019, dated 2026)

test: Residual lipid levels in the liver of mice after LNP administration; assay type: in vivo, CD-1 mice; conditions: calculation assumes a 25 g mouse with a 1.5 g liver, >95% equals very slowly metabolism of the lipid

SMILES	Approx. Percent Total Dose of Parent Lipid Remaining at 24 h
CCCCCCCCCOC(=O)OCCCCCCN(CCO)CCCCCCCC(=O)OC(CCCCCCCC)CCCCCCCC [Compound 6, Heptadecan-9-yl 8-((2-hydroxyethyl)(6-(((nonyloxy)carbonyl)oxy)hexyl)amino)octanoate]	2%
CCCCCCCCC(CCCCCCCC)OC(=O)CCCCCCCN(CCO)CCCCCCOC(=O)OCCC(CCCCC)CCCCC [Compound 64, Heptadecan-9-yl 8-((2-hydroxyethyl)(6-((((3-pentyloctyl)oxy)carbonyl)oxy)hexyl)amino)octanoate]	51%

Other lines, results leading:

Approx. Percent Total Dose of Parent Lipid Remaining at 24 h	SMILES
48%	CCCCCCCCC(CCCCCCCC)OC(=O)CCCCCCCN(CCO)CCCCCCOC(=O)OCCC(CCCCCC)CCCCCC [Compound 66, Heptadecan-9-yl 8-((6-((((3-hexylnonyl)oxy)carbonyl)oxy)hexyl)(2-hydroxyethyl)amino)octanoate]
>95%	CCCCCCCCC(CCCCCCCC)OC(=O)CCCCCCCN(CCCCCCOC(=O)OCCC(CCCCCC)CCCCCC)CCCNc1c(NC)c(=O)c1=O [Compound 65, Heptadecan-9-yl 8-((6-((((3-hexylnonyl)oxy)carbonyl)oxy)hexyl)(3-((2-(methylamino)-3,4-dioxocyclobut-1-en-1-yl)amino)propyl)amino)octanoate]
>95%	CCCCCCCCC(CCCCCCCC)OC(=O)CCCCCCCN(CCCCCCOC(=O)OCCC(CCCCC)CCCCC)CCCNc1c(NC)c(=O)c1=O [Compound 67, Heptadecan-9-yl 8-((3-((2-(methylamino)-3,4-dioxocyclobut-1-en-1-yl)amino)propyl)(6-((((3-pentyloctyl)oxy)carbonyl)oxy)hexyl)amino)octanoate]
